This is an account of results in US9758492B2, “IDO inhibitors” (Bristol-Myers Squibb Company, priority 2013, dated 2017).

For the test, the target named is IDO (Homo sapiens, UniProt P14902). In words: LLE_IDO_ABS_DR (IDO assay).
IDO, sequence (P14902 whole entry): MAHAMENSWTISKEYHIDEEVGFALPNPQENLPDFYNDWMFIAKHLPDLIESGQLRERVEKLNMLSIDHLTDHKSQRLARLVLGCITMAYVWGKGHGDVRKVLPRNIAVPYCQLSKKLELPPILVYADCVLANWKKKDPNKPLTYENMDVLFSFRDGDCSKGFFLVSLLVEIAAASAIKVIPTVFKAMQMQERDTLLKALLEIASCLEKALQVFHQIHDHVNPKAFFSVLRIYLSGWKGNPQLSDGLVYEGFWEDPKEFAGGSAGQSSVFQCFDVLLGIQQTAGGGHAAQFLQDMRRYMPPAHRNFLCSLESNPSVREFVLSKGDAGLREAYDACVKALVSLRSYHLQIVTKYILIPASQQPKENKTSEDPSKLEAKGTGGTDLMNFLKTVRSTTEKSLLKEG
The term IC50 denotes the point on the concentration scale where inhibition reaches its midpoint. `CC(C)CN(CC(C)C)c1ccc(-c2ccccc2C(=O)O)cc1NC(=O)Nc1ccc(F)cc1F` [Example 138, 3′-(3-(2,4-difluorophenyl)ureido)-4′-(diisobutylamino) biphenyl-2-carboxylic acid] registered an IC50 of 6.24 nM.

The molecule `CC(C)CN(CC(C)C)c1ccc(-c2ccccc2-c2nnn[nH]2)cc1NC(=O)NC1CC1` [Example 139, 1-cyclopropyl-3-(4-(diisobutylamino)-2′-(1H-tetrazol-5-yl)biphenyl-3-yl)urea] came in with an IC50 of 1980 nM.

Consider `CC(C)CN(CC(C)C)c1ccc(-c2ccccc2-c2nnn[nH]2)cc1NC(=O)NC1CCCCC1` [Example 140, 1-cyclohexyl-3-(4-(diisobutylamino)-2′-(1H-tetrazol-5-yl)biphenyl-3-yl)urea], for which half-maximal inhibition (IC50) required 2960 nM.

Take `CC(C)CN(CC(C)C)c1ccc(-c2ccccc2-c2nnn[nH]2)cc1NC(=O)NCC(C)(C)C` [Example 141, 1-(4-(diisobutylamino)-2′-(1H-tetrazol-5-yl)biphenyl-3-yl)-3-neopentylurea]: it took 430 nM to reach half-maximal inhibition (IC50).

In the case of `CC(C)CN(CC(C)C)c1ccc(-c2ccccc2-c2nnn[nH]2)cc1NC(=O)NCC1CC1` [Example 142, 1-(cyclopropylmethyl)-3-(4-(diisobutylamino)-2′-(1H-tetrazol-5-yl)biphenyl-3-yl)urea], the IC50 worked out at 950 nM.

Consider `CC(C)CN(CC(C)C)c1ccc(-c2ccccc2-c2nnn[nH]2)cc1NC(=O)Nc1ccc2ncsc2c1` [Example 143, 1-(benzo[d]thiazol-6-yl)-3-(4-(diisobutylamino)-2′-(1H-tetrazol-5-yl)biphenyl-3-yl)urea], for which the midpoint of inhibition, the IC50, lay at 150 nM.

In turn, `COC(=O)c1cnc(NC(=O)Nc2cc(-c3ccccc3-c3nnn[nH]3)ccc2N(CC(C)C)CC(C)C)s1` [Example 144, methyl 2-(3-(4-(diisobutylamino)-2′-(1H-tetrazol-5-yl)biphenyl-3-yl)ureido)thiazole-5-carboxylate] returned an IC50 of 10 nM.

As to `CC(C)CN(CC(C)C)c1ccc(-c2ccccc2-c2nnn[nH]2)cc1NC(=O)Nc1nncs1` [Example 145, 1-(4-(diisobutylamino)-2′-(1H-tetrazol-5-yl)biphenyl-3-yl)-3-(1,3,4-thiadiazol-2-yl)urea], the IC50 was 80 nM.

As for `CC(C)CN(CC(C)C)c1ccc(-c2cc(F)ccc2C(=O)O)cc1NC(=O)Nc1ccc(F)cc1F` [Example 146, 3′-(3-(2,4-difluorophenyl)ureido)-4′-(diisobutylamino)-5-fluorobiphenyl-2-carboxylic acid], the concentration for half-maximal inhibition (IC50) was determined as 10 nM.

Regarding `Cc1ccc(NC(=O)Nc2cc(-c3ccccc3-c3nnn[nH]3)ccc2N(CC(C)C)C(C)C)cc1` [Example 147, 1-(4-(isobutyl(isopropyl)amino)-2′-(1H-tetrazol-5-yl)biphenyl-3-yl)-3-p-tolylurea], 10 nM corresponded to half-maximal inhibition (IC50).

Regarding `Cc1ccc(NC(=O)Nc2cc(-c3ccccc3C(=O)O)ccc2N(CC(C)C)C(C)C)cc1` [Example 148, 4′-(isobutyl(isopropyl)amino)-3′-(3-p-tolylureido)biphenyl-2-carboxylic acid], the IC50 is 40 nM.

Turning to `Cc1ccc(NC(=O)Nc2cc(-c3cc(F)ccc3C(=O)O)ccc2N(CC(C)C)C(C)C)cc1` [Example 149, 5-fluoro-4′-(isobutyl(isopropyl)amino)-3′-(3-p-tolylureido)biphenyl-2-carboxylic acid], the IC50 is 60 nM.

`Cc1ccc(NC(=O)Nc2cc(-c3cnccc3C(=O)O)ccc2N(CC(C)C)CC(C)C)cc1` [Example 151, 3-(4-(diisobutylamino)-3-(3-p-tolylureido)phenyl) isonicotinic acid] yielded a 50% inhibitory concentration (IC50) of 4620 nM.

`Cc1ccc(NC(=O)Nc2cc(-c3ccoc3C(=O)O)ccc2N(CC(C)C)CC(C)C)cc1` [Example 152, 3-(4-(diisobutylamino)-3-(3-p-tolylureido)phenyl)furan-2-carboxylic acid]: the IC50 was 770 nM.

`CC(C)CN(c1ccc(-c2ccccc2-c2nnn[nH]2)cc1NC(=O)Nc1ccccc1F)C(C)C` [Example 153, 1-(2-fluorophenyl)-3-(4-(isobutyl (isopropyl)amino)-2′-(1H-tetrazol-5-yl)biphenyl-3-yl)urea] displayed an IC50 of 5.16 nM.

Consider `CC(C)CN(c1ccc(-c2ccccc2C(=O)O)cc1NC(=O)Nc1ccccc1F)C(C)C` [Example 154, 3′-(3-(2-fluorophenyl)ureido)-4′-(isobutyl(isopropyl)amino)biphenyl-2-carboxylic acid], for which the IC50 turned out to be 30 nM.

As for `CC(C)CN(c1ccc(-c2cc(F)ccc2C(=O)O)cc1NC(=O)Nc1ccccc1F)C(C)C` [Example 155, 5-fluoro-3′-(3-(2-fluorophenyl)ureido)-4′-(isobutyl(isopropyl)amino)biphenyl-2-carboxylic acid], the IC50 amounted to 40 nM.

Turning to `CC(C)CN(c1ccc(-c2ccccc2-c2nnn[nH]2)cc1NC(=O)Nc1ccc(F)cc1F)C(C)C` [Example 156, 1-(2,4-difluorophenyl)-3-(4-(isobutyl (isopropyl)amino)-2′-(1H-tetrazol-5-yl)biphenyl-3-yl)urea], the IC50 was 7.45 nM.

For `CC(C)CN(c1ccc(-c2ccccc2C(=O)O)cc1NC(=O)Nc1ccc(F)cc1F)C(C)C` [Example 157, 3′-(3-(2,4-difluorophenyl)ureido)-4′-(isobutyl(isopropyl)amino)biphenyl-2-carboxylic acid], inhibition was half-maximal at 20 nM (IC50).

For `CC(C)CN(c1ccc(-c2cc(F)ccc2C(=O)O)cc1NC(=O)Nc1ccc(F)cc1F)C(C)C` [Example 158, 3′-(3-(2,4-difluorophenyl)ureido)-5-fluoro-4′-(isobutyl(isopropyl)amino)biphenyl-2-carboxylic acid], the IC50 came out at 30 nM.

`Cc1ccc(NC(=O)Nc2cc(-c3ccncc3C(=O)O)ccc2N(CC(C)C)CC(C)C)cc1` [Example 159, 4-(4-(diisobutylamino)-3-(3-p-tolylureido)phenyl) nicotinic acid]: the IC50 stood at 980 nM.

`COc1ccc(C(=O)O)c(-c2ccc(N(CC(C)C)CC(C)C)c(NC(=O)Nc3ccc(F)cc3F)c2)c1` [Example 160, 3′-(3-(2,4-difluorophenyl)ureido)-4′-(diisobutylamino)-5-methoxybiphenyl-2-carboxylic acid] had an IC50 of 190 nM.

`CC(C)CN(c1ccc(-c2ccccc2-c2nnn[nH]2)cc1NC(=O)Nc1ccccc1C(F)(F)F)C1CCCCC1` [Example 161, 1-(4-(cyclohexyl(isobutyl)amino)-2′-(1H-tetrazol-5-yl)biphenyl-3-yl)-3-(2-(trifluoromethyl)phenyl)urea] gave an IC50 of 240 nM.

`CC(C)CN(c1ccc(-c2ccccc2C(=O)O)cc1NC(=O)Nc1ccccc1C(F)(F)F)C1CCCCC1` [Example 162, 4′-(cyclohexyl (isobutyl)amino)-3′-(3-(2-(trifluoromethyl)phenyl)ureido)biphenyl-2-carboxylic acid] returned an IC50 of 1270 nM.

Turning to `CC(C)CN(c1ccc(-c2cc(F)ccc2C(=O)O)cc1NC(=O)Nc1ccccc1C(F)(F)F)C1CCCCC1` [Example 163, 4′-(cyclohexyl (isobutyl)amino)-5-fluoro-3′-(3-(2-(trifluoromethyl)phenyl)ureido) biphenyl-2-carboxylic acid], the IC50 turned out to be 1030 nM.

`Cc1ccc(NC(=O)Nc2cc(C3=C(c4nnn[nH]4)CCC3)ccc2N(CC(C)C)CC(C)C)cc1` [Example 164, 1-(5-(2-(1H-tetrazol-5-yl)cyclopent-1-enyl)-2-(diisobutylamino)phenyl)-3-p-tolylurea] yielded an IC50 of 5.4 nM.
